Square brackets hold non-standard residues; d marks the D form. Peptide text beside a SMILES is read from it.
Target: T1, trypsin (from bovine pancreas) (Bos taurus, UniProt P00760)
T1 construct: trypsin (from bovine pancreas, 8,600 units/mg solid); from tissue; host or cells: bovine pancreas
T1 sequence (P00760 24-246): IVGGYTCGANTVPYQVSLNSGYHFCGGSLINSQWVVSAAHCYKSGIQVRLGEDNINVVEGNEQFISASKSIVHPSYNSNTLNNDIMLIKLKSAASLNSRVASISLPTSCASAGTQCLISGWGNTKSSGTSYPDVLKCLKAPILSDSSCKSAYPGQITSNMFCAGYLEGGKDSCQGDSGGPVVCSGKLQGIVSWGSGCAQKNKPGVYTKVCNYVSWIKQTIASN
Experiment: Trypsin inhibition assay
Format: biochemical
Settings: trypsin concentration of 193 nM; substrate N-alpha-benzoyl-DL-arginine-p-nitroanilide; read-out: IC50, trypsin inhibiting activity
Protocol: The assay was performed in a 96-well assay plate, 15 μl trypsin (from bovine pancreas, 8,600 units/mg solid) solution (0.05 mg/ml 0.02 M HCl), 50 μl peptide solution (1 to 3 mM in water), and 100 μl 0.1 M Tris-buffer containing 25 mM CaCl2 (pH 7.8) were mixed in the wells of the assay plate. After incubation for 30 minutes, 100 μl substrate solution (N^α -benzoyl-DL-arginine-p-nitroanilide, 2.3 mM in water) was added. After 30 minutes, absorbances were read at 405 nm using a Titertek multichannel photometer, and expressed as a percentage of the control (well without peptide). The values obtained with serial dilutions of the peptide solutions were used to determine the IC50 values (concentration neccessary for 50% inhibition).

CC(=O)N[C@H](CCCNC(=N)N)C(=O)N[C@H](Cc1ccc(O)cc1)C(=O)N[C@H](CCCNC(=N)N)C(=O)N1CCC[C@@H]1C(=O)N[C@H](Cc1c[nH]c2ccccc12)C(=O)N[C@@H](C(N)=O)C(C)C [Ac-ryrpwv-NH2] (Ac-[dR][dY][dR][dP][dW][dV]-NH2)
IC50: 131 µM

CC(=O)N[C@H](CCCNC(=N)N)C(=O)N[C@H](Cc1ccc(O)cc1)C(=O)N[C@H](CCCNC(=N)N)C(=O)N1CCC[C@@H]1C(=O)N[C@H](Cc1c[nH]c2ccccc12)C(=O)N[C@H](Cc1c[nH]c2ccccc12)C(N)=O [Ac-ryrpww-NH2] (Ac-[dR][dY][dR][dP][dW][dW]-NH2)
IC50: 125 µM
